Source: ChEMBL document CHEMBL1140846, “Convenient QSAR model for predicting the complexation of structurally diverse compounds with beta-cyclodextrins” (Bioorg Med Chem, 2009)

Test: Binding affinity to beta cyclodextrin

SMILES	log Ks
CC(C)CC(C)O (stereo not given)	2.04
CC1(C)O[C@@H]2C[C@H]3[C@@H]4C[C@H](F)C5=CC(=O)C=C[C@]5(C)[C@@]4(F)[C@@H](O)C[C@]3(C)[C@]2(C(=O)CO)O1 [FLUOCINOLONE ACETONIDE]	3.48
CC1(C)O[C@@H]2C[C@H]3[C@@H]4CCC5=CC(=O)C=C[C@]5(C)[C@@]4(F)[C@@H](O)C[C@]3(C)[C@]2(C(=O)CO)O1 [TRIAMCINOLONE ACETONIDE]	3.51
CCNCC [DIETHYLAMINE]	1.36
c1ccc2c(c1)Nc1ccccc1S2 [PHENOTHIAZINE]	2.73
CC(C)(C)O [TERT-BUTANOL]	1.68
Cc1cc(NS(=O)(=O)c2ccc(N)cc2)nc(C)n1 [SULFISOMIDINE]	2.1
COc1cc(O)cc(OC)c1	2.34
Oc1ccc(Cl)cc1 [PARACHLOROPHENOL]	2.61
O=C(O)CC1CC2CCC1C2 (stereo not given)	3.59
Nc1ccc(-c2ccc(N)cc2)cc1 [BENZIDINE]	3.35
Oc1cccc(Cl)c1	2.28
CC(=O)Oc1ccc(C(C)C)cc1	2.88
CC(=O)Oc1ccc(C(C)(C)C)cc1	3.85
CCC(=O)c1cccc(O)c1	2.61
O=C1CN=C(c2ccccc2)c2cc([N+](=O)[O-])ccc2N1 [NITRAZEPAM]	1.97
COc1ccc(O)cc1 [MEQUINOL]	2.21
COc1cc(NS(=O)(=O)c2ccc(N)cc2)ncn1 [SULFAMONOMETHOXINE]	2.48
O=C(O)/C=C/c1ccc(O)cc1 [COUMARIC ACID]	2.83
OC1CCC1 [CYCLOBUTANOL]	1.18
Cc1ccc(/C=C/C(=O)O)cc1	2.65
CCCCCc1ccc(O)cc1	4.19
Oc1cc(Cl)cc(Cl)c1	2.07

SMILES	log Ks
Nc1ccc(S(=O)(=O)Nc2ncccn2)cc1 [SULFADIAZINE]	2.52
CCc1ccccc1 [ETHYLBENZENE]	2.59
CCC(C)(C)c1ccc(O)cc1	4.7
CC(=O)Oc1ccc(Br)cc1	2.68
OCCCCCO [1,5-PENTANEDIOL]	1.22
Oc1ccc(O)cc1 [HYDROQUINONE]	2.05
CCCc1cccc(OC(C)=O)c1	3.28
c1ccc2c(c1)[nH]c1ccccc12 [CARBAZOLE]	2.44
CN1C(=O)NC(=O)C(C)(C2=CCCCC2)C1=O (stereo not given) [HEXOBARBITAL]	3.08
O=Cc1ccc(O)cc1 [4-HYDROXYBENZALDEHYDE]	1.75
CCC(C)(C)O [AMYLENE HYDRATE]	1.91
CCOc1ccccc1 [PHENETOLE]	2.49
CC(=O)Nc1ccccc1 [ACETANILIDE]	2.2
CCCC(C)C1(CC)C(=O)NC(=S)NC1=O (stereo not given) [THIOPENTAL]	3.28
CC(=O)Oc1cccc(Br)c1	2.67
CCC1(CCC(C)C)C(=O)NC(=O)NC1=O [AMOBARBITAL]	3.07
OCCCCCCO [1,6-HEXANEDIOL]	1.69
COC(=O)c1ccccc1 [METHYL BENZOATE]	2.5
CC(=O)Oc1cccc(C)c1	2.21
CC=O	-0.64
CC(=O)Oc1cccc(CC(C)C)c1	3.83
O=C(O)Cc1ccccc1 [PHENYLACETIC ACID]	2.1
